This passage reports IC50 and inhibition results from ChEMBL document CHEMBL2311360 (J Med Chem, 2013).

Molecules are shown by their SMILES.

For experiment [1], the system named is HCT-116/VM46. Put plainly: Cytotoxicity against human vinblastine-resistant HCT116/VM46 cells assessed as growth inhibition after 72 hrs by phosphatase assay. In kind it is functional, cell-based. Particulars: HCT-116/VM46, 72 h.
For experiment [2], the system named is L1210. Put plainly: Cytotoxicity against mouse L1210 cells assessed as growth inhibition after 72 hrs by phosphatase assay. In kind it is functional, cell-based. Particulars: L1210, 72 h.
Experiment [3] deals with HCT-116. The experiment can be described thus: Cytotoxicity against human HCT116 cells assessed as growth inhibition after 72 hrs by phosphatase assay. In kind it is functional, cell-based. The conditions noted are these: HCT-116, 72 h.
For experiment [4], the target named is Tubulin (Sus scrofa) (UniProt P02554+P02550). Put plainly: Displacement of [3H]Vinblastine from pig tubulin at 7.2 x 10^-5 M after 60 mins. In kind it is protein assay.
Sequence of Tubulin (Sus scrofa) (P02550 whole entry, looked up): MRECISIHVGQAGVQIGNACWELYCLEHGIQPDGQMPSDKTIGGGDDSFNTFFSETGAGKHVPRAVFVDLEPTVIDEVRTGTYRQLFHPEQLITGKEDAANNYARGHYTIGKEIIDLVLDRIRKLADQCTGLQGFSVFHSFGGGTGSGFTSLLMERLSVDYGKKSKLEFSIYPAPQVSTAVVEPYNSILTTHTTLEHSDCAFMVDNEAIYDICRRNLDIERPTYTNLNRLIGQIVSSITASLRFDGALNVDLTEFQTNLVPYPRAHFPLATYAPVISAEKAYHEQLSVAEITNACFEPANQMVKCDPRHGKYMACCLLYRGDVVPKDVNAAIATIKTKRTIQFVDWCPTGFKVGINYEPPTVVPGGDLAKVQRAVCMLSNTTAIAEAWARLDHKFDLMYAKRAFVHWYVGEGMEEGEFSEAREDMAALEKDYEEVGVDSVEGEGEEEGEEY
Sequence of Tubulin (Sus scrofa) (P02554 whole entry, looked up): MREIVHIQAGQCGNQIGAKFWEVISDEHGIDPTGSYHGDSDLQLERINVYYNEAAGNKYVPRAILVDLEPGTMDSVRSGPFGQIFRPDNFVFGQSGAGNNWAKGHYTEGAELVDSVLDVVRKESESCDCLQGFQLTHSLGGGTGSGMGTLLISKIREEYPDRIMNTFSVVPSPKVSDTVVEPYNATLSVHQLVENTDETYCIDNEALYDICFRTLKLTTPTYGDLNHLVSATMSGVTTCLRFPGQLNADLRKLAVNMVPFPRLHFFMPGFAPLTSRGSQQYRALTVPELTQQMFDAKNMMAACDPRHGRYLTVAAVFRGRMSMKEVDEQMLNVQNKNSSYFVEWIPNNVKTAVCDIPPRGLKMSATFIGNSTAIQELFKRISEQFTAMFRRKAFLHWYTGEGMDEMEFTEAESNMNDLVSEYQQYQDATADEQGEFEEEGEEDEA

`CC[C@]1(O)C[C@H]2CN(CCc3c([nH]c4ccccc34)[C@@](C(=O)OC)(c3cc4c(cc3OC)N(C)[C@@H]3[C@]45CCN4CCC[C@@](CC)(C[C@]3(O)C(=O)OC)[C@H]45)C2)C1`: the figures for the IC50 in experiment [1], in experiment [2] and in experiment [3] were 4000 nM, 660 nM and 670 nM, respectively.

As to `CC[C@]1(O)C[C@H]2CN(CCc3c([nH]c4ccccc34)[C@@](C(=O)OC)(c3cc4c(cc3OC)N(C)[C@@H]3[C@]45CCCN4CC=C[C@@](CC)(C[C@]3(O)C(=O)OC)[C@@H]45)C2)C1`, the IC50 (as a rule, the point on the concentration scale where inhibition reaches its midpoint) in experiment [1] was found to be 730 nM; in experiment [2] it was 65 nM; in experiment [3] it was 100 nM.

Take `CC[C@]1(O)C[C@H]2CN(CCc3c([nH]c4ccccc34)[C@@](C(=O)OC)(c3cc4c(cc3OC)N(C)[C@H]3[C@@](O)(C(=O)OC)[C@@H](OC(C)=O)[C@]5(CC)C=CCN6CC[C@]43[C@@H]65)C2)C1`: the figures for the IC50 in experiment [1], in experiment [2] and in experiment [3] were 8400 nM, 75 nM and 80 nM, respectively.

Consider `CC[C@]1(O)C[C@H]2CN(CCc3c([nH]c4ccccc34)[C@@](C(=O)OC)(c3cc4c(cc3OC)N(C)[C@@H]3[C@]45CCCN4CCC[C@@](CC)(C[C@]3(O)C(=O)OC)[C@H]45)C2)C1`, for which the IC50 was > 10000 nM in experiment [1], 5700 nM in experiment [2] and 7400 nM in experiment [3].

With `CC[C@]1(O)C[C@H]2CN(CCc3c([nH]c4ccccc34)[C@@](C(=O)OC)(c3cc4c(cc3OC)N(C)[C@H]3[C@@](O)(C(=O)OC)[C@@H](OC(C)=O)[C@]5(CC)CCN6CCC[C@]43[C@@H]65)C2)C1`, the IC50 was 7600 nM in experiment [1], 600 nM in experiment [2] and 680 nM in experiment [3].

As for `CC[C@]1(O)C[C@H]2CN(CCc3c([nH]c4ccccc34)[C@@](C(=O)OC)(c3cc4c(cc3OC)N(C)[C@H]3[C@@](O)(C(=O)OC)[C@H](OC(C)=O)[C@]5(CC)CCCN6CC[C@]43[C@@H]65)C2)C1`, the results for the IC50 in experiment [1], in experiment [2] and in experiment [3] were 4500 nM, 570 nM and 370 nM, respectively. Also, in experiment [4], the inhibition (in general, the percentage by which the read-out fell short of the control) was determined as 77.4%.

`CC[C@]1(O)C[C@@H]2CN(CCc3c([nH]c4ccccc34)[C@@](C(=O)OC)(c3cc4c(cc3OC)N(C)[C@H]3[C@@](O)(C(=O)OC)[C@H](OC(C)=O)[C@]5(CC)C=CCN6CC[C@]43[C@@H]65)C2)C1` came in with an inhibition in experiment [4] of 50%.

On to `CC[C@]1(O)C[C@H]2CN(CCc3c([nH]c4ccccc34)[C@@](C(=O)OC)(c3cc4c(cc3OC)N(C)[C@@H]3[C@]45CCN4CC=C[C@@](CC)(C[C@]3(O)C(=O)OC)[C@H]45)C2)C1`, for which the results for the IC50 in experiment [1], in experiment [2] and in experiment [3] were 660 nM, 60 nM and 60 nM, respectively.

Regarding `CCC1=C[C@H]2CN(CCc3c([nH]c4ccccc34)[C@@](C(=O)OC)(c3cc4c(cc3OC)N(C)[C@H]3[C@@](O)(C(=O)OC)[C@H](OC(C)=O)[C@]5(CC)CCCN6CC[C@]43[C@@H]65)C2)C1`, the IC50 is 3500 nM in experiment [1], 740 nM in experiment [2] and 890 nM in experiment [3].

`CCC1=C[C@@H]2CN(C1)Cc1c([nH]c3ccccc13)[C@@](C(=O)OC)(c1cc3c(cc1OC)N(C)[C@H]1[C@@](O)(C(=O)OC)[C@H](OC(C)=O)[C@]4(CC)C=CCN5CC[C@]31[C@@H]54)C2` [VINORELBINE]: the IC50 in experiment [1] amounted to 600 nM; in experiment [2], 65 nM; in experiment [3], 75 nM.

In the case of `CC[C@]1(O)C[C@H]2CN(CCc3c([nH]c4ccccc34)[C@@](C(=O)OC)(c3cc4c(cc3OC)N(C)[C@H]3[C@@](O)(C(=O)OC)[C@H](OC(C)=O)[C@]5(CC)CCN6CC[C@]43[C@@H]65)C2)C1`, the results for the IC50 in experiment [1], in experiment [2] and in experiment [3] were 7800 nM, 560 nM and 80 nM, respectively.

As for `CCC1=C[C@H]2CN(CCc3c([nH]c4ccccc34)[C@@](C(=O)OC)(c3cc4c(cc3OC)N(C)[C@H]3[C@@](O)(C(=O)OC)[C@H](OC(C)=O)[C@]5(CC)CCN6CC[C@]43[C@@H]65)C2)C1`, the 50% inhibitory concentration (IC50) in experiment [1] was determined as 7000 nM; in experiment [2], 700 nM; in experiment [3] it was 630 nM.

In the case of `CC[C@]1(O)C[C@H]2CN(CCc3c([nH]c4ccccc34)[C@@](C(=O)OC)(c3cc4c(cc3OC)N(C)[C@@H]3[C@]45CCCN4CCC[C@@](CC)(C[C@]3(O)C(=O)OC)[C@@H]45)C2)C1`, the IC50 in experiment [1] came out at 900 nM; in experiment [2], 55 nM; in experiment [3], 80 nM.

Consider `CC[C@]1(O)C[C@H]2CN(CCc3c([nH]c4ccccc34)[C@@](C(=O)OC)(c3cc4c(cc3OC)N(C)[C@H]3[C@@](O)(C(=O)OC)[C@H](OC(C)=O)[C@]5(CC)CCN6CCC[C@]43[C@@H]65)C2)C1`, for which the IC50 in experiment [1] turned out to be 450 nM; in experiment [2], 7.2 nM; in experiment [3] it was 6.5 nM. Besides, the inhibition in experiment [4] stood at 48.4%.

With `CC[C@]1(O)C[C@H]2CN(CCc3c([nH]c4ccccc34)[C@@](C(=O)OC)(c3cc4c(cc3OC)N(C)[C@@H]3[C@]45CCCN4CC=C[C@@](CC)(C[C@]3(O)C(=O)OC)[C@H]45)C2)C1`, the IC50 in experiment [1] was found to be 5700 nM; in experiment [2], 370 nM; in experiment [3], 430 nM. The inhibition in experiment [4] worked out at 68.5%.
